In paper PMC11739741 (Clinical Pharmacology and Therapeutics, 2024):
“Also recorded” adds a separate entry of the source. Read-outs that look alike come from different tables or passages of the source. Blank lines part the entries; values can stand above or below the compound they belong to.

What was measured:
[1] = MTX/GLPG3970 DDI study: plasma pharmacokinetics; type: in vivo, human; conditions: for Intra‐participant variability of AUC0–∞ and C max: MTX/GLPG3970 DDI study; for AUC(0-inf): AUC0–∞
[2] = cited from earlier work
[3] = test system: breast cancer resistance protein (BCRP); conditions: at clinically relevant concentrations; ref unpublished data; cited from earlier work
[4] = cited from earlier work; remark: listed apart in the source
[5] = SSZ/GLPG3970 DDI study: plasma pharmacokinetics; type: in vivo, human; conditions: for AUC(0-t) / AUC(0-inf) / Cmax: human, plasma, oral, geometric LS mean (95% CI); for AUC(0-t): AUC0–t; for AUC(0-inf): AUC0–∞; for Cmax: C max
[6] = Day 5 (GLPG3970 + MTX) vs. day 1 (MTX alone)
[7] = GLPG3970 350 mg + MTX 7.5 mg, Day 5 (n = 14)
[8] = MTX 7.5 mg alone, Day 1 (n = 15)
[9] = Day 5 (GLPG3970 + SSZ) vs. day 1 (SSZ alone)
[10] = Day 9 (GLPG3970 2 h after SSZ) vs. day 1 (SSZ alone)
[11] = 1000 mg, SSZ 1,000 mg alone, Day 1 (n = 8)
[12] = GLPG3970 350 mg 2 h after SSZ 1,000 mg, Day 9 (n = 7)
[13] = GLPG3970 350 mg + SSZ 1,000 mg, Day 5 (n = 7)

AUC0–t, geometric LS mean ratio (90% CI) [1, 6]: 80 (69, 92) %
C max, geometric LS mean ratio (90% CI) [1, 6]: 77 (72, 82) %
AUC0–t, geometric LS mean (95% CI) [1, 7]: 392 (332, 463) ng.h/mL
C max, geometric LS mean (95% CI) [1, 7]: 27.0 (23.9, 30.4) ng/mL
AUC0–t, geometric LS mean (95% CI) [1, 8]: 490 (418, 576) ng.h/mL
C max, geometric LS mean (95% CI) [1, 8]: 35.0 (31.1, 39.4) ng/mL
Reduction in AUC0–t ([1]; MTX + GLPG3970 vs. MTX alone): 20%
Reduction in C max ([1]; MTX + GLPG3970 vs. MTX alone): 23%
Reduction in exposure ([1]; MTX + GLPG3970 vs. MTX alone): 20–23%
Intra‐participant variability of AUC0–∞ and C max [1]: 10–22%
Compound: CN(Cc1nc2c(N)nc(N)nc2[nH]c1=O)c1ccc(C(=O)N[C@@H](CCC(=O)O)C(=O)O)cc1 [7‐OH‐MTX, 7‐hydroxy‐methotrexate]

AUC0–t, geometric LS mean (95% CI) [1, 7]: 583 (523, 649) ng.h/mL
Time after which plasma concentrations fell below the LLOQ ([1]; MTX 7.5 mg, LLOQ 5 ng/mL): 12 h
Intra‐participant variability of AUC0–∞ and C max [1]: 10–22%
AUC(0-t) ([1]; human, plasma, oral, 7.5 mg, AUC0–t, geometric LS mean (95% CI), MTX 7.5 mg alone, Day 1 (n = 15)): 0.627 µg·h/mL
AUC(0-inf) ([1]; human, plasma, oral, 7.5 mg, geometric LS mean (95% CI), MTX 7.5 mg alone, Day 1 (n = 13)): 0.677 µg·h/mL
AUC(0-inf) ([1]; human, plasma, oral, geometric LS mean (95% CI), GLPG3970 350 mg + MTX 7.5 mg, Day 5 (n = 12)): 0.614 µg·h/mL
Cmax ([1]; human, plasma, oral, C max, geometric LS mean (95% CI), GLPG3970 350 mg + MTX 7.5 mg, Day 5 (n = 14)): 193 ng/mL
Compound: CN(Cc1cnc2nc(N)nc(N)c2n1)c1ccc(C(=O)N[C@@H](CCC(=O)O)C(=O)O)cc1 [MTX, methotrexate, reference compound]
fraction of dose metabolized in the liver [4]: Approximately 10%
mean t 1/2 [4]: 3 to 10 h
bioavailability ([4]; oral dosing): ~ 60%
excreted unchanged in urine ([4]; within 24 hours): 80–90%

Further lines, the compound ahead of its results:

Compound: COc1cc(-c2cnc3cc(OCCN4CCOCC4)ccn23)cc2c1C(=O)N(CC(F)(F)F)CC2 [GLPG3970]
Dose proportionality of exposure (AUC) ([2]; across the evaluated dose range): increased more than the dose proportionally
Effect of food consumption on C max ([2]; preliminary work, ref not given): reduced
Tolerability ([2]; single and multiple ascending doses, healthy volunteers): well tolerated
Inhibition of BCRP in vitro [3]: strongly inhibits; also recorded: strong inhibition

Compound: Nc1ccc(S(=O)(=O)Nc2ccccn2)cc1 [SPD, sulfapyridine]
AUC0–t, geometric LS mean ratio (90% CI) [5, 9]: 90 (81, 100) %
AUC0–∞, geometric LS mean ratio (90% CI) [5, 9]: 90 (81, 101) %
C max, geometric LS mean ratio (90% CI) [5, 9]: 90 (78, 102) %
AUC0–t, geometric LS mean ratio (90% CI) [5, 10]: 89 (80, 99) %
AUC0–∞, geometric LS mean ratio (90% CI) [5, 10]: 89 (80, 100) %
C max, geometric LS mean ratio (90% CI) [5, 10]: 94 (82, 107) %
Effect of GLPG3970 on SPD exposure ([5]; SSZ with GLPG3970 (simultaneously or 2 h before) vs. SSZ alone): similar; also recorded: no relevant effect
AUC(0-t) [5, 11]: 119 µg·h/mL
AUC(0-inf) [5, 11]: 125 µg·h/mL
Cmax [5, 11]: 5680 ng/mL
AUC(0-t) [5, 12]: 106 µg·h/mL
AUC(0-t) [5, 13]: 107 µg·h/mL
AUC(0-inf) [5, 12]: 112 µg·h/mL
AUC(0-inf) [5, 13]: 113 µg·h/mL
Cmax [5, 12]: 5310 ng/mL
Cmax [5, 13]: 5090 ng/mL
mean plasma t 1/2 ([4]; fast acetylation phenotype (NAT2)): 10.4 h
mean plasma t 1/2 ([4]; slow acetylation phenotype (NAT2)): 14.8 h

Compound: O=C(O)c1cc(/N=N/c2ccc(S(=O)(=O)Nc3ccccn3)cc2)ccc1O [SSZ, sulfasalazine, reference compound]
AUC(0-t) [5, 11]: 59.3 µg·h/mL
AUC(0-inf) [5, 11]: 59.8 µg·h/mL
Cmax [5, 11]: 7270 ng/mL
AUC(0-t) [5, 12]: 109 µg·h/mL
AUC(0-t) [5, 13]: 108 µg·h/mL
AUC(0-inf) [5, 12]: 110 µg·h/mL
AUC(0-inf) [5, 13]: 109 µg·h/mL
Cmax [5, 12]: 13100 ng/mL
Cmax [5, 13]: 12000 ng/mL
Time at which systemic concentrations are detectable post‐dosing ([4]; oral, literature, ref not given): ~ 1.5 hours
t max ([4]; post‐dosing, oral SSZ, literature, ref not given): 3 to 12 h
